Reference: the supplement of paper PMC10307832

Key:
Experiment in all cases: relative viability (nuclei count vs DMSO), 5 days (fraction); higher = more cells survive
NCI-H1650 = test system: NCI-H1650
How it was run: (§1)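 After 5 days of treatment, lung cancer cells in 1536-well plates were fixed and stained in a single step (final 0.05% Triton X-100, 1% formaldehyde, 1 ug/ml Hoechst) and their nuclei counted on 4× images. Treatment had been applied by pin tool the day after seeding as one drug alone or as a fixed anchor-drug dose with five library-drug doses (not always all listed) in √10 steps. Relative viability is the nuclei count of treated wells divided by that of vehicle wells, and values are medians of duplicate plates.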

NCI-H441 = test system: NCI-H441
How it was run: as §1

NCI-H2087 = test system: NCI-H2087
How it was run: as §1

NCI-H838 = test system: NCI-H838
How it was run: as §1

NCI-H1651 = test system: NCI-H1651
How it was run: as §1

NCI-H2009 = test system: NCI-H2009
How it was run: as §1

PC-3 [JPC-3] = test system: PC-3 [JPC-3]
How it was run: as §1

NCI-H23 = test system: NCI-H23
How it was run: as §1

NCI-H1975 = test system: NCI-H1975
How it was run: as §1

NCI-H2085 = test system: NCI-H2085
How it was run: as §1

NCI-H2170 = test system: NCI-H2170
How it was run: as §1

H3255 = test system: H3255
How it was run: as §1

EPLC-272H = test system: EPLC-272H
How it was run: as §1

NCI-H727 = test system: NCI-H727
How it was run: as §1

LC-2-ad = test system: LC-2-ad
How it was run: as §1

LOU-NH91 = test system: LOU-NH91
How it was run: as §1

NCI-H2023 = test system: NCI-H2023
How it was run: as §1

NCI-H2228 = test system: NCI-H2228
How it was run: as §1

HARA = test system: HARA
How it was run: as §1

SW 1573 = test system: SW 1573
How it was run: as §1

UMC-11 = test system: UMC-11
How it was run: as §1

Compound `Cc1csc(=NC2CCCCC2)n1/N=C/c1ccc(O)c(O)c1O` [MIM1] + CC1(C)CCC(c2ccc(Cl)cc2)=C(CN2CCN(c3ccc(C(=O)NS(=O)(=O)c4ccc(N[C@H](CCN5CCOCC5)CSc5ccccc5)c(S(=O)(=O)C(F)(F)F)c4)cc3)CC2)C1 [Navitoclax] (partner 0.5 µM) has a relative viability (NCI-H1650; first compound 0.2 µM) of 1.13, a relative viability (NCI-H1650; first compound 0.6325 µM) of 1.18 and a relative viability (NCI-H1650; first compound 2 µM) of 0.693. For the same compound, the relative viability (NCI-H1650; first compound 6.325 µM) was 0.452, the relative viability (NCI-H1650; first compound 20 µM) was 0.202 and the relative viability (NCI-H441; first compound 0.2 µM) was 0.58. The relative viability (NCI-H441; first compound 0.6325 µM) was 0.912, the relative viability (NCI-H441; first compound 2 µM) was 0.706 and the relative viability (NCI-H441; first compound 6.325 µM) was 0.577. The relative viability (NCI-H441; first compound 20 µM) was 0.24, the relative viability (NCI-H2087; first compound 0.2 µM) was 1.05 and the relative viability (NCI-H2087; first compound 0.6325 µM) was 0.921. The relative viability (NCI-H2087; first compound 2 µM) was 1.03, the relative viability (NCI-H2087; first compound 6.325 µM) was 0.928 and the relative viability (NCI-H2087; first compound 20 µM) was 0.382. For the same compound, the relative viability (NCI-H838; first compound 0.2 µM) was 1.12, the relative viability (NCI-H838; first compound 0.6325 µM) was 1.3 and the relative viability (NCI-H838; first compound 2 µM) was 0.994. It also gave a relative viability (NCI-H838; first compound 6.325 µM) of 0.902, a relative viability (NCI-H838; first compound 20 µM) of 0.501 and a relative viability (NCI-H1651; first compound 0.2 µM) of 1.09. It also gave a relative viability (NCI-H1651; first compound 0.6325 µM) of 1.1, a relative viability (NCI-H1651; first compound 2 µM) of 1.03 and a relative viability (NCI-H1651; first compound 6.325 µM) of 0.875. For the same compound, the relative viability (NCI-H1651; first compound 20 µM) was 0.869, the relative viability (NCI-H2009; first compound 0.2 µM) was 1.14 and the relative viability (NCI-H2009; first compound 0.6325 µM) was 1.19. For the same compound, the relative viability (NCI-H2009; first compound 2 µM) was 1.22, the relative viability (NCI-H2009; first compound 6.325 µM) was 0.999 and the relative viability (NCI-H2009; first compound 20 µM) was 0.826. The relative viability (PC-3 [JPC-3]; first compound 0.2 µM) was 0.821, the relative viability (PC-3 [JPC-3]; first compound 0.6325 µM) was 0.682 and the relative viability (PC-3 [JPC-3]; first compound 2 µM) was 0.897. It also gave a relative viability (PC-3 [JPC-3]; first compound 6.325 µM) of 0.696, a relative viability (PC-3 [JPC-3]; first compound 20 µM) of 0.531 and a relative viability (NCI-H23; first compound 0.2 µM) of 0.631. It also gave a relative viability (NCI-H23; first compound 2 µM) of 0.632, a relative viability (NCI-H23; first compound 6.325 µM) of 0.934 and a relative viability (NCI-H23; first compound 20 µM) of 0.242. The relative viability (NCI-H1975; first compound 0.2 µM) was 1.16, the relative viability (NCI-H1975; first compound 0.6325 µM) was 1.23 and the relative viability (NCI-H1975; first compound 2 µM) was 1.04. The relative viability (NCI-H1975; first compound 6.325 µM) was 0.732, the relative viability (NCI-H1975; first compound 20 µM) was 0.761 and the relative viability (NCI-H2085; first compound 0.2 µM) was 1.17. The relative viability (NCI-H2085; first compound 0.6325 µM) was 1.08, the relative viability (NCI-H2085; first compound 2 µM) was 1.12 and the relative viability (NCI-H2085; first compound 6.325 µM) was 1.02. For the same compound, the relative viability (NCI-H2085; first compound 20 µM) was 1.01, the relative viability (NCI-H2170; first compound 0.2 µM) was 0.571 and the relative viability (NCI-H2170; first compound 0.6325 µM) was 0.636. It also gave a relative viability (NCI-H2170; first compound 2 µM) of 0.549, a relative viability (NCI-H2170; first compound 6.325 µM) of 0.468 and a relative viability (NCI-H2170; first compound 20 µM) of 0.298. The relative viability (H3255; first compound 0.2 µM) was 0.561, the relative viability (H3255; first compound 0.6325 µM) was 0.557 and the relative viability (H3255; first compound 2 µM) was 0.467. The relative viability (H3255; first compound 6.325 µM) was 0.413, the relative viability (H3255; first compound 20 µM) was 0.198 and the relative viability (EPLC-272H; first compound 0.2 µM) was 1.11. It also gave a relative viability (EPLC-272H; first compound 0.6325 µM) of 1.04, a relative viability (EPLC-272H; first compound 2 µM) of 1.2 and a relative viability (EPLC-272H; first compound 6.325 µM) of 1. For the same compound, the relative viability (EPLC-272H; first compound 20 µM) was 0.199, the relative viability (NCI-H727; first compound 0.2 µM) was 0.441 and the relative viability (NCI-H727; first compound 0.6325 µM) was 0.493. It also gave a relative viability (NCI-H727; first compound 2 µM) of 0.324, a relative viability (NCI-H727; first compound 6.325 µM) of 0.346 and a relative viability (NCI-H727; first compound 20 µM) of 0.27. The relative viability (LC-2-ad; first compound 0.2 µM) was 0.491, the relative viability (LC-2-ad; first compound 0.6325 µM) was 0.516 and the relative viability (LC-2-ad; first compound 2 µM) was 0.498. The relative viability (LC-2-ad; first compound 6.325 µM) was 0.251, the relative viability (LC-2-ad; first compound 20 µM) was 0.135 and the relative viability (LOU-NH91; first compound 0.2 µM) was 0.588. The relative viability (LOU-NH91; first compound 0.6325 µM) was 0.69, the relative viability (LOU-NH91; first compound 2 µM) was 0.532 and the relative viability (LOU-NH91; first compound 6.325 µM) was 0.492. It also gave a relative viability (LOU-NH91; first compound 20 µM) of 0.313, a relative viability (NCI-H2023; first compound 0.2 µM) of 0.992 and a relative viability (NCI-H2023; first compound 0.6325 µM) of 1.03. For the same compound, the relative viability (NCI-H2023; first compound 2 µM) was 0.91, the relative viability (NCI-H2023; first compound 6.325 µM) was 0.683 and the relative viability (NCI-H2023; first compound 20 µM) was 0.432. The relative viability (NCI-H2228; first compound 0.2 µM) was 0.959, the relative viability (NCI-H2228; first compound 0.6325 µM) was 0.916 and the relative viability (NCI-H2228; first compound 2 µM) was 0.874. For the same compound, the relative viability (NCI-H2228; first compound 6.325 µM) was 0.274, the relative viability (NCI-H2228; first compound 20 µM) was 0.157 and the relative viability (HARA; first compound 0.2 µM) was 1.13. It also gave a relative viability (HARA; first compound 0.6325 µM) of 1.15, a relative viability (HARA; first compound 2 µM) of 1.19 and a relative viability (HARA; first compound 6.325 µM) of 1.13. For the same compound, the relative viability (HARA; first compound 20 µM) was 0.23, the relative viability (SW 1573; first compound 0.2 µM) was 0.973 and the relative viability (SW 1573; first compound 0.6325 µM) was 0.967. The relative viability (SW 1573; first compound 2 µM) was 1.08, the relative viability (SW 1573; first compound 6.325 µM) was 0.909 and the relative viability (SW 1573; first compound 20 µM) was 0.549. For the same compound, the relative viability (UMC-11; first compound 0.2 µM) was 0.32, the relative viability (UMC-11; first compound 0.6325 µM) was 0.298 and the relative viability (UMC-11; first compound 2 µM) was 0.36. It also gave a relative viability (UMC-11; first compound 6.325 µM) of 0.208 and a relative viability (UMC-11; first compound 20 µM) of 0.145.
